Laboratory results reported in US9718790B2, “Triazine derivative and pharmaceutical composition having an analgesic activity comprising the same” (SHIONOGI & CO., LTD., priority 2010, dated 2017).

What was measured:
CYP3A4 = CYP3A4 (Homo sapiens (Human), UniProt P08684); test: CYP3A4 fluorescent MBI test; format: in vitro ADME; conditions: substrate 7-BFC, pre-reaction time 0 or 30 minutes
Description: The CYP3A4 fluorescent MBI test is a test of investigating enhancement or CYP3A4 inhibition of a compound by a metabolism reaction, and the test was performed using, as CYP3A4 enzyme expressed in Escherichia coli and employlng, as an index, a reaction in which 7-benzyloxytrifluoromethylchmarin (BFC) is debenzylated by the CYP3A4 enzyme to produce a metabolite, 7-hydroxytrifluoromethylchmarin (HFC) emitting fluorescent light.
The reaction conditions were as follows: substrate, 5.6 μmol/L 7-BFC; pre-reaction time, 0 or 30 minutes; reaction time, 15 minutes; reaction temperature, 25° C.
An enzyme in a K-Pi buffer (pH 7.4) and a test drug solution as a pre-reaction. solution were added to a 96-well plate at the composition of the pre-reaction, a part of it was transferred to another 96-well plate so that it was 1/10 diluted by a substrate in a K-Pi buffer, NADPH as a co-factor was added to initiate a reaction as an index (without preincubation) and, after a predetermined time of a reaction, acetonitrile:0.5 mol/L Tris (trishydroxyaminomethane)=4:1 was added to stop the reaction. […] For the plate on which each index reaction had been performed, a fluorescent value of 7-HFC which is a metabolite was measured with a fluorescent plate reader. […]

serum = test: Protein binding test (equilibrium dialysis, serum); format: in vitro ADME; conditions: 37° C., 24 hours, 2 μg/mL
Description: The unbound fraction the present compound in serum was measured using serum of various species.
The reactive conditions are as follows: Evaluation method, Equilibrium dialysis; Reaction time, 24 hours; Reaction temperature, 37° C.; Concentration of the present compound, 2 μg/mL.
The test solution was added to each serum and the mixture was agitated to prepare the serum samples at the concentration mentioned above. Each serum sample was added into one side or the cell and phosphate buffered saline (PBS) was added into the other side to perform equilibrium dialysis at 37° C. for 24 hours. Then, the concentration of the compounds in the samples that were obtained from both sides was measured by LC/MS/MS.
(Result) The ratio of PBS concentration to serum concentration is expressed as unbound fraction.

[1] = test system: partial sciatic nerve ligation model in rats; test: Analgesic effect in a Seltzer model, Evaluation (1): mechanical allodynia, von Frey filaments; format: in vivo; conditions: rat, oral single administration, at 3 hours, read-out: analgesic effect, percent reversal of mechanical allodynia
Description: Rats were anaesthetized using isoflurane/O2 inhalation anaesthesia. After induction of anesthesia, the left thigh was shaved. An incision was made in the skin just below the hip bone. The muscle was bluntly dissected to expose the sciatic nerve. One third (⅓) to one half (½) of the sciatic nerve thickness was tightly ligated and the wound was closed. The right thigh is used as a sham-operated control. The right thigh undergoes an identical procedure with the left hind limb, however, the sciatic nerve is not manipulated or ligated.
Two weeks after nerve ligation, the effect on mechanical allodynia was assessed using a series of von Frey filaments. For habituation, the rats were placed into a plastic cage on a wire mesh bottom. The mechanical sensitivity (mechanical threshold) of the hind paws was estimated with a series of von Frey filaments (0.4-20 g). The measurement of mechanical sensitivity of the right and left hind paws was performed to obtain predose mechanical sensitivity. The rats showing thee threshold change from 0.6 to 2 g (in nerve ligated side) and 8 to 15 g (in sham operated side) were used in the experiments. On the day belone the experiment, the rats were evaluated with a series of von Frey filaments to familiarize them with the test procedure. The adopted animal was administrated with the test compounds. The test compounds were homogenized with mortar and pestle and suspended or diluted in 0.5% Methyl Cellulose to prepare 0.1-2.0 mg/mL/kg suspension and orally administered to rat using a syringe attached with a sonde. Post-dose mechanical sensitivities of the right and left hind paws were measured at approximately 1 to 5 hours after drug administration. Percent reversal of mechanical allodynia for each rat was calculated using the following formula. The analgesic effects of the compounds were compared.

Sequence of CYP3A4 (P08684 whole entry): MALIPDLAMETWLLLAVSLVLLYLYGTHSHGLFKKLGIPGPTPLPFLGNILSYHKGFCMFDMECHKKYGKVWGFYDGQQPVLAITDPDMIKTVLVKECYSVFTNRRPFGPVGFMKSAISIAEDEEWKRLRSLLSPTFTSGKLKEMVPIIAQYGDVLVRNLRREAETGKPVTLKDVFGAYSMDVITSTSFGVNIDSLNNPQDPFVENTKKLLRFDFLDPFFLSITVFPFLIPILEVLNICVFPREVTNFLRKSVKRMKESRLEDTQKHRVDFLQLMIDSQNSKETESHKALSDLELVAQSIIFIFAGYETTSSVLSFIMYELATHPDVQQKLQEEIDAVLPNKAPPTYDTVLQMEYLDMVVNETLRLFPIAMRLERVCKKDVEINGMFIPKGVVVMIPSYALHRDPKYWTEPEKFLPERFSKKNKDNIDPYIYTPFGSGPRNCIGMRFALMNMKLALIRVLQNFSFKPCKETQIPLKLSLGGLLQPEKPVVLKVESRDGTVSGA

| Structure (SMILES) | IC50 (CYP3A4) | unbound fraction (ratio of PBS concentration to serum concentration) (serum) | inhibition in vivo at 3 mg/kg [1] |
| --- | --- | --- | --- |
| C[C@@H](Cn1c(=O)[nH]/c(=N\c2ccc(OCC3CC3)cc2)n(Cc2ccc(Cl)cc2)c1=O)C(=O)O [Compound I-0837] | ≤ 3 µM | 2.1% | – |
| O=c1[nH]/c(=N\c2ccc(Oc3ccon3)cc2)n(Cc2ccc(Cl)cc2)c(=O)n1CC(CO)CO [Compound I-2291] | – | 4.5% | > 30% |
